Measurements: patent US5385894A, “Disubstituted 6-aminoquinazolinones” (Merck & Co., Inc., priority 1994, dated 1995)

Tests used:
[1] = tested on: male Sprague-Dawley rats; conditions: rat; cited from earlier work
[2] = tested on: rats pretreated with scopolamine; conditions: cited from earlier work
[3] = log P (Table 1); assay type: physicochemical

Row | Compound | logP [3] | other results
1 | CN1C(=O)CN=C(c2ccccc2)c2cc(Cl)ccc21 [Diazepam] |  | activity in CER assay [1]: active
2 | CNC(=O)Oc1ccc2c(c1)[C@]1(C)CCN(C)[C@@H]1N2C [physostigmine] |  | activity in rat passive avoidance assay [2]: active
3 | CCCCCN(C(=O)c1ccc(OP(=O)(O)O)cc1)c1ccc2nc(CCC)n(Cc3ccc(-c4ccccc4-c4nn[nH]n4)cc3)c(=O)c2c1 [Example 146] | 3.4 | 
4 | CCCc1nc2ccc(N(Cc3ccccn3)C(=O)OCC)cc2c(=O)n1Cc1ccc(-c2ccccc2-c2nn[nH]n2)cc1 [Example 164] | 3.5 | 
5 | CCCCN(C(=O)c1ccncc1)c1ccc2nc(CCC)n(Cc3ccc(-c4ccccc4-c4nn[nH]n4)cc3)c(=O)c2c1 [Example 68] | 4.1 | 
6 | CC(C)c1nc2ccc(N(Cc3ccccc3)C(=O)c3ccccc3)cc2c(=O)n1Cc1ccc(-c2ccccc2-c2nnn[nH]2)cc1 [Example 70] |  | log P [3]: 4.5
7 | CCCc1nc2ccc(N(CCC)C(=O)OCC(C)C)cc2c(=O)n1Cc1ccc(-c2ccccc2-c2nnn[nH]2)cc1 [Example 10] | 5.1 | 
8 | CCc1nc2ccc(N(Cc3ccccc3Cl)C(=O)c3ccccc3)cc2c(=O)n1Cc1ccc(-c2ccccc2-c2nn[nH]n2)cc1 [Example 84] | 4.4 | 
9 | CCCc1nc2ccc(N(Cc3ccccc3)C(=O)c3cccnc3)cc2c(=O)n1Cc1ccc(-c2ccccc2-c2nnn[nH]2)cc1 [Example 134] | 3.7 | 
10 | CCCCOC(=O)N(CCCC)c1ccc2nc(CCC)n(Cc3ccc(-c4ccccc4-c4nn[nH]n4)cc3)c(=O)c2c1 [Example 24] | 6 | 
11 | CCCc1nc2ccc(N(CCC)C(=O)c3ccc(O)cc3)cc2c(=O)n1Cc1ccc(-c2ccccc2-c2nnn[nH]2)cc1 [Example 131] | 3.8 | 
12 | CCCOC(=O)N(Cc1ccc(N)cc1)c1ccc2nc(CCC)n(Cc3ccc(-c4ccccc4-c4nn[nH]n4)cc3)c(=O)c2c1 [Example 166] | 3.9 | 
13 | CCCOC(=O)N(Cc1ccccn1)c1ccc2nc(COC)n(Cc3ccc(-c4ccccc4-c4nn[nH]n4)cc3)c(=O)c2c1 [Example 162] | 3.3 | 
14 | CCCCCN(C(=O)c1ccccc1)c1ccc2nc(CCC)n(Cc3ccc(-c4ccccc4S(=O)(=O)NC(=O)c4ccccc4)cc3)c(=O)c2c1 [Example 74] | 5.5 | 
15 | CCCc1nc2ccc(N(CCCC(=O)O)C(=O)c3ccccc3)cc2c(=O)n1Cc1ccc(-c2ccccc2-c2nnn[nH]2)cc1 [Example 105] | 2.3 | 
16 | CCCc1nc2ccc(N(Cc3ccccn3)C(=O)N(C)C(C)C)cc2c(=O)n1Cc1ccc(-c2ccccc2-c2nn[nH]n2)cc1 [Example 175] | 3.7 | 
17 | CCCCCN(C(=O)c1ccncc1)c1ccc2nc(CCC)n(Cc3ccc(-c4ccccc4-c4nnn[nH]4)cc3)c(=O)c2c1 [Example 35] | 4.3 | 
18 | CCCCCN(C(=O)c1cccnc1)c1ccc2nc(CCC)n(Cc3ccc(-c4ccccc4-c4nn[nH]n4)cc3)c(=O)c2c1 [Example 72] | 4.3 | 
19 | CCCc1nc2ccc(N(Cc3ccccn3)C(=O)c3ccncc3)cc2c(=O)n1Cc1ccc(-c2ccccc2-c2nn[nH]n2)cc1 [Example 145] | 2.7 | 
20 | CCCCCN(C(=O)c1ccccc1)c1ccc2nc(CCC)n(Cc3ccc(-c4ccccc4S(=O)(=O)NC(=O)C4CC4)cc3)c(=O)c2c1 [Example 73] | 5.3 | 
21 | CCCc1nc2ccc(N(Cc3ccccc3)C(=O)c3ccccc3Oc3ccccc3)cc2c(=O)n1Cc1ccc(-c2ccccc2-c2nn[nH]n2)cc1 [Example 178] | 4.2 | 
22 | CCc1nc2ccc(N(Cc3ccc(I)cc3)C(=O)c3ccccc3)cc2c(=O)n1Cc1ccc(-c2ccccc2-c2nnn[nH]2)cc1 [Example 112] | 5 | 
23 | CCCOC(=O)N(Cc1ccncc1)c1ccc2nc(CCC)n(Cc3ccc(-c4ccccc4-c4nn[nH]n4)cc3)c(=O)c2c1 [Example 156] | 3.8 | 
24 | CCCc1nc2ccc(N(Cc3ccccc3)C(=O)OCC)cc2c(=O)n1Cc1ccc(-c2ccccc2-c2nn[nH]n2)cc1 [Example 56] | 4.7 | 
